Measurements from patent US9510598B2, “Nitrogen-containing heterocyclic compounds for plant disease control” (BAYER CROPSCIENCE AG, priority 2012, dated 2016).

Format: physicochemical
Settings: HPLC on reversed phase columns, method [a]: pH 2.7, 0.1% formic acid in water / acetonitrile, linear gradient 10% to 95% acetonitrile

SMILES	log P
C#CC1(C(=O)NCc2cn(CC)nc2C)CC(c2ccc3ncc(Br)cc3c2)=NO1 (centres unmarked) [compound 626]	2.57[a]
C#CC1(C(=O)NCCCOCC)CC(c2ccc3ncc(Br)cc3c2)=NO1 (centres unmarked) [compound 627]	2.94[a]
C#CC1(C(=O)NCc2cnc(C)cn2)CC(c2ccc3ncc(Br)cc3c2)=NO1 (centres unmarked) [compound 628]	2.41[a]
C#Cc1cnc2ccc(C3=NOC(C)(C(=O)NCc4cn(C5CCCC5)nc4C)C3)cc2c1 (centres unmarked) [compound 629]	2.71[a]
Cc1nn(C2CCCC2)cc1CNC(=O)C1(C)CC(c2ccc3ncc(Br)cc3c2)=NO1 (centres unmarked) [compound 630]	3.04[a]
C#Cc1cnc2ccc(C3=NOC(C)(C(=O)NCc4ccc(OC)cn4)C3)cc2c1 (centres unmarked) [compound 631]	1.96[a]
C#Cc1cnc2ccc(C3=NOC(C)(C(=O)NCc4cn(C5CCC5)nc4C)C3)cc2c1 (centres unmarked) [compound 632]	2.63[a]
Cc1nn(C2CCC2)cc1CNC(=O)C1(C)CC(c2ccc3ncc(Br)cc3c2)=NO1 (centres unmarked) [compound 633]	2.92[a]
C#Cc1cnc2ccc(C3=NOC(C)(C(=O)NCc4cn(CC)nc4Br)C3)cc2c1 (centres unmarked) [compound 634]	2.56[a]
C#Cc1cnc2ccc(C3=NOC(C)(C(=O)NCc4cn(CC)nc4SC)C3)cc2c1 (centres unmarked) [compound 635]	2.51[a]
CCn1cc(CNC(=O)C2(C)CC(c3ccc4ncc(Br)cc4c3)=NO2)c(Br)n1 (centres unmarked) [compound 636]	2.86[a]
C#Cc1cnc2ccc(C3=NOC(C)(C(=O)NCc4cn(CC)nc4OC)C3)cc2c1 (centres unmarked) [compound 637]	2.35[a]
CCn1cc(CNC(=O)C2(C)CC(c3ccc4ncc(Br)cc4c3)=NO2)c(SC)n1 (centres unmarked) [compound 638]	2.78[a]
CCn1cc(CNC(=O)C2(C)CC(c3ccc4ncc(Br)cc4c3)=NO2)c(OC)n1 (centres unmarked) [compound 639]	2.63[a]
C#Cc1cnc2ccc(C3=NOC(C)(C(=O)NCCF)C3)cc2c1 (centres unmarked) [compound 640]	2.05[a]
CC1(C(=O)NCCF)CC(c2ccc3ncc(Br)cc3c2)=NO1 (centres unmarked) [compound 641]	2.30[a]
CC1(C(=O)NCc2ccncn2)CC(c2ccc3ncc(Br)cc3c2)=NO1 (centres unmarked) [compound 642]	2.01[a]
C#Cc1cnc2ccc(C3=NOC(C)(C(=O)NCc4nc(C)cc(C)n4)C3)cc2c1 (centres unmarked) [compound 643]	2.23[a]
COc1cccnc1CNC(=O)C1(C)CC(c2ccc3ncc(Br)cc3c2)=NO1 (centres unmarked) [compound 644]	2.26[a]
C#Cc1cnc2ccc(C3=NOC(C)(C(=O)NCc4ncccc4OC)C3)cc2c1 (centres unmarked) [compound 645]	2.01[a]
CC1(C(=O)NCc2cnn(CC(F)F)c2)CC(c2ccc3ncc(Br)cc3c2)=NO1 (centres unmarked) [compound 646]	2.42[a]
C#Cc1cnc2ccc(C3=NOC(C)(C(=O)NCc4cnn(CC(F)F)c4)C3)cc2c1 (centres unmarked) [compound 647]	2.17[a]
C#Cc1cnc2ccc(C3=NOC(C)(C(=O)NCc4nc(C)cs4)C3)cc2c1 (centres unmarked) [compound 648]	2.26[a]
Cc1csc(CNC(=O)C2(C)CC(c3ccc4ncc(Br)cc4c3)=NO2)n1 (centres unmarked) [compound 649]	2.56[a]
C#Cc1cnc2ccc(C3=NOC(C)(C(=O)N(OC)C(C)C)C3)cc2c1 (centres unmarked) [compound 650]	3.15[a]
CON(C(=O)C1(C)CC(c2ccc3ncc(Br)cc3c2)=NO1)C(C)C (centres unmarked) [compound 651]	3.59[a]
C#Cc1cnc2ccc(C3=NOC(C)(C(=O)NCC(F)F)C3)cc2c1 (centres unmarked) [compound 652]	2.26[a]

SMILES	log P
CC1(C(=O)NCC(F)F)CC(c2ccc3ncc(Br)cc3c2)=NO1 (centres unmarked) [compound 653]	2.56[a]
C#Cc1cnc2ccc(C3=NOC(C)(C(=O)NCc4cn(CCCCC)nc4C)C3)cc2c1 (centres unmarked) [compound 654]	2.96[a]
CCCCCn1cc(CNC(=O)C2(C)CC(c3ccc4ncc(Br)cc4c3)=NO2)c(C)n1 (centres unmarked) [compound 655]	3.31[a]
C#Cc1cnc2ccc(C3=NOC(C)(C(=O)NCc4cn(CCCC)nc4C)C3)cc2c1 (centres unmarked) [compound 656]	2.64[a]
CCCCn1cc(CNC(=O)C2(C)CC(c3ccc4ncc(Br)cc4c3)=NO2)c(C)n1 (centres unmarked) [compound 657]	2.96[a]
C#Cc1cnc2ccc(C3=NOC(C)(C(=O)N(OC)C(C)CC)C3)cc2c1 (centres unmarked) [compound 658]	3.50[a]
CCC(C)N(OC)C(=O)C1(C)CC(c2ccc3ncc(Br)cc3c2)=NO1 (centres unmarked) [compound 659]	3.96[a]
C#Cc1cnc2ccc(C3=NOC(C)(C(=O)NCc4cccc(C(C)C)n4)C3)cc2c1 (centres unmarked) [compound 660]	2.07[a]
CC1(C(=O)NCc2ncccn2)CC(c2ccc3ncc(Br)cc3c2)=NO1 (centres unmarked) [compound 661]	2.13[a]
Cc1cc(C)nc(CNC(=O)C2(C)CC(c3ccc4ncc(Br)cc4c3)=NO2)n1 (centres unmarked) [compound 662]	2.51[a]
C#Cc1cnc2ccc(C3=NOC(C)(C(=O)NCc4ccncn4)C3)cc2c1 (centres unmarked) [compound 663]	1.78[a]
COc1ccnc(CNC(=O)C2(C)CC(c3ccc4ncc(Br)cc4c3)=NO2)c1 (centres unmarked) [compound 664]	1.49[a]
C#Cc1cnc2ccc(C3=NOC(C)(C(=O)NCc4cccc(OC)n4)C3)cc2c1 (centres unmarked) [compound 665]	2.77[a]
COc1ccc(CNC(=O)C2(C)CC(c3ccc4ncc(Br)cc4c3)=NO2)nc1 (centres unmarked) [compound 666]	2.20[a]
COc1cccc(CNC(=O)C2(C)CC(c3ccc4ncc(Br)cc4c3)=NO2)n1 (centres unmarked) [compound 667]	3.11[a]
C#Cc1cnc2ccc(C3=NOC(C)(C(=O)NCc4cn(C5CC5)nc4C)C3)cc2c1 (centres unmarked) [compound 668]	2.26[a]
Cc1nn(C2CC2)cc1CNC(=O)C1(C)CC(c2ccc3ncc(Br)cc3c2)=NO1 (centres unmarked) [compound 669]	2.52[a]
COc1ccncc1CNC(=O)C1(C)CC(c2ccc3ncc(Br)cc3c2)=NO1 (centres unmarked) [compound 670]	1.40[a]
COc1cc(CNC(=O)C2(C)CC(c3ccc4ncc(Br)cc4c3)=NO2)ccn1 (centres unmarked) [compound 671]	2.54[a]
C#Cc1cnc2ccc(C3=NOC(C)(C(=O)NCc4cnccc4OC)C3)cc2c1 (centres unmarked) [compound 672]	1.27[a]
COc1cnccc1CNC(=O)C1(C)CC(c2ccc3ncc(Br)cc3c2)=NO1 (centres unmarked) [compound 673]	1.56[a]
C#Cc1cnc2ccc(C3=NOC(C)(C(=O)NCc4ccnc(OC)c4)C3)cc2c1 (centres unmarked) [compound 674]	2.26[a]
COc1ccc(CNC(=O)C2(C)CC(c3ccc4ncc(Br)cc4c3)=NO2)nn1 (centres unmarked) [compound 675]	2.28[a]
C#Cc1cnc2ccc(C3=NOC(C)(C(=O)NCc4ccncc4OC)C3)cc2c1 (centres unmarked) [compound 676]	1.40[a]
C#Cc1cnc2ccc(C3=NOC(C)(C(=O)NCc4cc(OC)ccn4)C3)cc2c1 (centres unmarked) [compound 677]	1.34[a]
COc1ncccc1CNC(=O)C1(C)CC(c2ccc3ncc(Br)cc3c2)=NO1 (centres unmarked) [compound 678]	2.82[a]
COc1ccc(CNC(=O)C2(C)CC(c3ccc4ncc(Br)cc4c3)=NO2)cn1 (centres unmarked) [compound 679]	2.66[a]

Same assay, conditions: HPLC on reversed phase columns, method [a]: pH 2.7, 0.1% formic acid in water and acetonitrile, linear gradient 10% to 95% acetonitrile

SMILES	log P
C#Cc1cnc2ccc(C3=NOC(C)(C(=O)NCc4cccnc4OC)C3)cc2c1 (centres unmarked) [compound 680]	2.52[a]
C#Cc1cnc2ccc(C3=NOC(C)(C(=O)NCc4ccc(OC)nc4)C3)cc2c1 (centres unmarked) [compound 681]	2.37[a]
C#Cc1cnc2ccc(C3=NOC(C)(C(=O)NCc4cnccc4C)C3)cc2c1 (centres unmarked) [compound 682]	1.29[a]
C#Cc1cnc2ccc(C3=NOC(C)(C(=O)NCc4ccncc4C)C3)cc2c1 (centres unmarked) [compound 683]	1.29[a]
Cc1cc(CNC(=O)C2(C)CC(c3ccc4ncc(Br)cc4c3)=NO2)ccn1 (centres unmarked) [compound 684]	1.40[a]
C#Cc1cnc2ccc(C3=NOC(C)(C(=O)NCc4ccnc(C)c4)C3)cc2c1 (centres unmarked) [compound 685]	1.27[a]
CC(C)c1cccc(CNC(=O)C2(C)CC(c3ccc4ncc(Br)cc4c3)=NO2)n1 (centres unmarked) [compound 686]	2.33[a]
C#Cc1cnc2ccc(C3=NOC(C)(C(=O)NCc4ccc(OC)nn4)C3)cc2c1 (centres unmarked) [compound 687]	2.05[a]
COc1ncc(CNC(=O)C2(C)CC(c3ccc4ncc(Br)cc4c3)=NO2)cn1 (centres unmarked) [compound 688]	2.25[a]
C#Cc1cnc2ccc(C3=NOC(C)(C(=O)NCc4cnc(OC)nc4)C3)cc2c1 (centres unmarked) [compound 689]	2.01[a]
Cc1cccc(CNC(=O)C2(C)CC(c3ccc4ncc(Br)cc4c3)=NO2)n1 (centres unmarked) [compound 690]	1.60[a]
C#Cc1cnc2ccc(C3=NOC(C)(C(=O)NCc4cccc(C)n4)C3)cc2c1 (centres unmarked) [compound 691]	1.43[a]
CC1(C(=O)NCc2cncnc2)CC(c2ccc3ncc(Br)cc3c2)=NO1 (centres unmarked) [compound 692]	1.95[a]
Cc1ccncc1CNC(=O)C1(C)CC(c2ccc3ncc(Br)cc3c2)=NO1 (centres unmarked) [compound 693]	1.43[a]
CCn1cc(NC(=O)C2(C)CC(c3ccc4ncc(Br)cc4c3)=NO2)cn1 (centres unmarked) [compound 694]	2.45[a]
Cc1cnccc1CNC(=O)C1(C)CC(c2ccc3ncc(Br)cc3c2)=NO1 (centres unmarked) [compound 695]	1.46[a]
C#Cc1cnc2ccc(C3=NOC(C)(C(=O)NCc4cncc(OC)c4)C3)cc2c1 (centres unmarked) [compound 696]	1.59[a]
